Among the data in ChEMBL document CHEMBL3102694, “Synthesis of C11-Desmethoxy Soraphen A1α: A natural product analog that inhibits acetyl-CoA carboxylase” (ACS Med Chem Lett, 2013) are Activity and inhibition values, retold here.

Calls of active or inactive are those of the source. No cut-off for these calls is given here.

The species entered for test [1] is Mus musculus. Put plainly: Cytotoxicity against mouse SCR1163 cells at 1.25 to 10 uM after 24 to 72 hrs by MTT assay. In kind it is functional, cell-based. Background: Tetrazolium assays rely on reduction of a dye to a coloured formazan, in cell work by metabolically active cells.
Test [2] is filed under the species Mus musculus. Nature of the test: Inhibition of acetyl-CoA carboxylase in mouse SCR1163 cells assessed as reduction in [14C]-acetate incorporation into fatty acid at 0.1 to 1 uM after 4 hrs. In kind it is cell-based.
Test [3] is filed under the species Mus musculus. Put plainly: Inhibition of acetyl-CoA carboxylase in mouse SCR1693 cells assessed as reduction in [14C]-acetate incorporation into fatty acid at 0.1 to 1 uM after 4 hrs. The format is cell-based.

As to `CO[C@@H]1C/C=C/[C@H](C)[C@@H]2O[C@](O)([C@H](C)C(=O)O[C@H](c3ccccc3)CCCC1)[C@H](OC)[C@@H](O)[C@@H]2C`, the outcome in the test filed under Mus musculus [1] was Active. Besides, the results for the inhibition in the test listed under Mus musculus [2] and in the test listed under Mus musculus [3] were 59% and 48%, respectively.
In the case of `CO[C@H]1CCCC[C@@H](c2ccccc2)OC(=O)[C@@H](C)[C@@]2(O)O[C@H]([C@@H](C)[C@H](O)[C@H]2OC)[C@@H](C)/C=C/[C@H]1OC`, the inhibition result in the test listed under Mus musculus [2] and in the test filed under Mus musculus [3] was “Active” each time.

The inhibition is the relative decrease from the control value, in per cent.
